Legend:
CD19+ B cells [1] = assay: B cell differentiation assay: CD20/CD38 phenotyping by flow cytometry; type: cell-based, human; conditions: for CD20−CD38++ plasmablasts/plasma cells, % / CD20+CD38− activated B cells, % / CD20+CD38+ intermediated cells, %: 3 donors; for plasmablast population (CD20-CD38+): day 7, DMSO control 30.4%
Description: Differentiated B cells (see section 8.2.3) were harvested, counted, and aliquoted at about 1×10^6 cells or less per 4 mL tube. The cells were washed 1× with stain buffer. Next, the cells then were blocked with 10% human serum/PBS for 20-30 minutes. Following blocking, the cells were centrifuged for 5 minutes at 1200 rpm and supernatants discarded. In the 100 μL of remaining buffer, 20 μL of various BD Pharmigen flow antibodies were added according to experimental design. The cells were stained for 20-30 minutes at 4° C. Then the cells were washed 2× with stain buffer and supernatants discarded. Next, 500 μL of stain buffer or PBS was added to the tubes. The samples were immediately analyzed or put at 4° C. overnight. Cells were stained with mouse anti-human CD20 and CD38, CD19 and CD27, or respective isotype controls. All samples were analyzed using a FACSCanto flow cytometer, FACSDiva analysis software (BD Bioscience), and FlowJo Analysis software.
Immunophenotyping For Flow Cytometric Analysis: Cells were stained using multicolor direct immunofluorescence stain for flow cytometric analysis. Surface staining was performed before cell fixation and permeabilization. Cells (50 μl; 1×10^6 cells/ml in washing buffer, 2% FBS with 0.1% NaN3 in PBS) were used for each staining. The cells were stained with isotype control mAb ([…]) and multicolor FITC-conjugated anti-CD20 mAb and PE-conjugated anti-CD38 mAb, or PerCP-Cy5.5 conjugated anti-CD44 mAb, PE-conjugated anti-CD83 mAb were used for day 4 activated B cells (CD20+CD38-cells), and day 4 PBs and day 7 PBs (CD20-CD38+), and other staining, analyzed by flow cytometry as per manufacturer's instructions. The intracellular staining of transcription factor proteins (BCL-6, IRF-4, BLIMP-1, PAX-5 and XBP-1) and IgJ was performed according to the manufacturer's recommendations.

CD19+ B cells [2] = assay: Cell viability during plasmablast differentiation (live cell count); type: cell-based, human; conditions: for percentage of total viable cells: after 4 days
From the text: To determine live cell count, B cells (see section 8.2.3) were stained with 0.4% trypan blue and live cells counted using the Countess automated cell counter (Invitrogen) in duplicate samples.

[3] = system: BCL-6, IRF-4, BLIMP-1, PAX5 and XBP-1; assay: Transcription factor protein expression by laser scanning cytometry (iCyte), normal B cells; type: cell-based, human; conditions: Day 7, 20 nM
Description: Preparation Of Cytospin From Single Cell Suspension And Immunofluorescence Staining for iCyte: A cell suspension of not more than 0.5×10^6 cells/ml of 2% FBS-containing PBS was prepared. Up to 200 μl of this suspension was loaded in each cuvette and spinned at 800 rpm for 3 min. The cuvette and the paper were carefully detached without damaging the fresh cytospin and proceeded with either immediate fixation or drying. Unfixed cytospins were stored for max 2 days at room temperature. Cells on slides were fixed with increasing concentrations of EtOH and allowed to dry prior to staining. After blocking non-specific binding with normal serum (species same as secondary antibody), sections were incubated with the mixture of following monoclonal antibodies in a humidified chamber at cool room for overnight: (i) anti-human CD38 as plasmablast cell marker, and (ii) anti-BCL-6, IRF-4, BLIMP-1, PAX5 and XBP-1 for transcription factor proteins. After washings, slides were incubated for 1 hr at room temperature in dark with the mixture of secondary antibodies which were raised in different species (with two different fluorochromes, i.e., Alexa Fluor-488 and Alexa Fluor-633). The slides were then rinsed in PBS, counterstained with DAPI for 20 minutes at room temperature, coverslipped with anti-fade fluorescent mounting medium, and sealed with nail polish. The slides were stored in dark at 4° C. To exclude false positives produced by nonspecific binding of the secondary antibody, all of the tissues were treated in the same manner with buffer substituting for the primary antibody. The color of the antibody staining was observed and quantity was analyzed in the tissue sections using iCyte.

NZBWF1/J mouse = NZBWF1/J mouse model of systemic lupus erythematosus; type: in vivo; conditions: 30 mg/kg; week 4
Tsk-1 mouse = assay: Tight skin-1 (Tsk-1) mouse model: hypodermal thickness and hydroxyproline; type: in vivo; conditions: 30 mg/kg
From the text: First, the inhibitory effects of the compound on fibrosis in the Tsk-1 tight skin mouse model were also investigated.

IgG = IgG production by SLE patient PBMC (ELISA); conditions: Homo sapiens, read-out: IgG IC50 (nM) SLE (n = 3)
Description: (§1) Supernatants (from section 8.2.3) were harvested and analyzed by ELISA for IgG and IgM production (ZeptoMetrix Corp. Buffalo, N.Y.).
B Cell Differentiation Protocol: Enriched B cells were isolated from fresh buffy-coat (leukocyte enriched units) by Ficoll-Hypaque density gradient centrifugation followed by incubation with EasySep negative selection human B cell enrichment kit (Stem cell technologies). In brief, 2×10^8/ml PBMC were mixed with 4 ml of Robosep buffer and transferred to a 14 mL polystyrene round bottom tube. EasySep Human B cell enrichment cocktail (200 μL) was added per tube, vortexed and incubated at room temperature for 10 minutes. […] After cells were counted, an aliquot was removed for FACS analysis and the remaining cells were used for culture. […]
CD19+ peripheral blood human B cells from normal donors, or total peripheral blood mononuclear cell PBMC for patients with systemic lupus erythematosus (“SLE”), were cultured in the presence of interleukin (“IL”)-2, IL-10, IL15, TLR9 agonist, and CD40 L for 4 days, followed by IL-2, IL-6, IL-10 and IL-15 for another 3 days. Cells were counted, viability assessed, and expression of CD20, CD38, CD44, and CD83 were measured by flow cytometry. Plasmablast lineage factors IRF-4, BLIMP-1, XBP-1, and IgJ, and germinal center markers PAX-5 and BCL-6 were measured by qRT-PCR. […] Secreted immunoglobulins IgG and IgM were measured by ELISA.

IgM = IgM production in normal PBMC differentiation cultures (ELISA); conditions: Homo sapiens, read-out: IgM IC50 (nM) Normal (n = 3)
Description: Step 1—B cell Activation—day 0 through day 4: Prepare fresh B cell cocktail by adding 50 μg/mL of human transferrin to B cell media. (Iscoves+10% PFBS, 1% P/S, and 5 μg/mL human insulin). […] Five milliliters (1×10^5/ml) of CD19+ B cell were added to each well of a 6 well flat-bottom plate (final cell count=5×10^5/well). Five L (lx)±compound/DMSO was added to each test well (0.1% final DMSO) and incubated at 37° C. for 4 days.
Step 2—Plasmablast Generation—day 4 through day 7: Cells were harvested and counted on the cell counter; an aliquot was removed for flow analysis, the remaining cells were washed with PBS. Prepare fresh B cell cocktail by adding 1 μg/ml of human transferrin to B cell media. […] Add B cell differentiation cocktail (final concentration): recombinant human IL-2 (20 U/mL), IL-10 (50 ng/mL), IL-15 (10 ng/mL), IL-6 (50 ng/mL) to cells. Add fresh B cell cocktail and transfer cells back to the original wells and bring volume back to 5 mL. Five L (1×)±compound/DMSO was added to each test well (0.1% final DMSO) and incubated at 37° C. for 4 days.
as §1
The data was graphed using GraphPad Prism 5.0 software.
IgM and IgG were measured by ELISA.

[4] = CD38+ plasmablast/plasma cells, listed as Compound I-S

O=C1CC[C@H](N2Cc3c(OCc4ccc(CN5CCOCC5)cc4)cccc3C2=O)C(=O)N1 [Test compound, (S)-3-[4-(4-morphlin-4-ylmethylbenzyloxy)-1-oxo-1,3-dihydro-isoindo-2-yl]piperidine-2,6-dione]
percentage of CD20+CD38- activated B cells (CD19+ B cells [1]): increased
percentage of CD20-CD38+ plasmablasts (CD19+ B cells [1]): dose-dependently reduced
percentage of large size cells (gate p2) (CD19+ B cells [1]; Day 4, 2 nM, DMSO 35.5%): 31.2%
CD20−CD38++ plasmablasts/plasma cells, % (CD19+ B cells [1]; Day 4, 20 nM, DMSO 25.9 ± 2.4): 4.8 ± 2.3%
CD20−CD38++ plasmablasts/plasma cells, % (CD19+ B cells [1]; Day 4, 20 nM, DMSO 25.9 ± 2.4, listed as test compound): 4.8%
CD20+CD38− activated B cells, % (CD19+ B cells [1]; Day 4, 20 nM, DMSO 42.1 ± 1.5): 57.9 ± 11.5%
CD20+CD38− activated B cells, % (CD19+ B cells [1]; Day 4, 20 nM, DMSO 42.1 ± 1.5, listed as test compound): 57.9%
percentage of large size cells (gate p2) (CD19+ B cells [1]; Day 4, 20 nM, DMSO 35.5%): 23.1%
percentage of large size cells (gate p2) (CD19+ B cells [1]; Day 4, 200 nM, DMSO 35.5%): 20.4%
CD20+CD38+ intermediated cells, % (CD19+ B cells [1]; Day 4, DMSO 14.7 ± 3.1): 18.3 ± 5.5%
percentage of large size cells (gate p2) (CD19+ B cells [1]; Day 7, 2 nM, DMSO 34.9%): 34.9%
CD20+CD38− activated B cells, % (CD19+ B cells [1]; Day 7, 20 nM, DMSO 12.5 ± 5.7): 50.5 ± 8.6%
CD20+CD38− activated B cells, % (CD19+ B cells [1]; Day 7, 20 nM, DMSO 12.5 ± 5.7, listed as test compound): 50.5%
CD20−CD38++ plasmablasts/plasma cells, % (CD19+ B cells [1]; Day 7, 20 nM, DMSO 54.8 ± 5.0): 9.7 ± 5.4%
CD20−CD38++ plasmablasts/plasma cells, % (CD19+ B cells [1]; Day 7, 20 nM, DMSO 54.8 ± 5.0, listed as test compound): 9.7%
percentage of large size cells (gate p2) (CD19+ B cells [1]; Day 7, 20 nM, DMSO 34.9%): 19.9%
percentage of large size cells (gate p2) (CD19+ B cells [1]; Day 7, 200 nM, DMSO 34.9%): 11.94%
CD20+CD38+ intermediated cells, % (CD19+ B cells [1]; Day 7, DMSO 22.8 ± 5.1): 23 ± 7.7%
plasmablast population (CD20-CD38+) (CD19+ B cells [1]; 2 nM): 27.3%
plasmablast population (CD20-CD38+) (CD19+ B cells [1]; 20 nM): 2.1%
plasmablast population (CD20-CD38+) (CD19+ B cells [1]; 200 nM): 0.4%
large size cell population (gate p2) (CD19+ B cells [1]; normal B cell differentiation assay): dose-dependently depleted
percentage of total viable cells (CD19+ B cells [2]; 20 nM): 69.6 % of control
percentage of total viable cells (CD19+ B cells [2]; 200 nM): 35.8 % of control
B cell viability (CD19+ B cells [2]; first 4 days of culture): reduced
BCL-6 expression ([3]; CD38+ plasmablast/plasma cells): significantly increased
BLIMP-1 expression ([3]; CD38+ plasmablast/plasma cells): decreased
IRF-4 expression ([3]; CD38+ plasmablast/plasma cells): decreased
PAX-5 expression ([3]; CD38+ plasmablast/plasma cells): decreased
BCL-6 expression [3, 4]: increased
BLIMP-1 expression [3, 4]: reduced
IRF-4 expression [3, 4]: reduced
XBP-1 expression ([3]; both cell populations): no change
BCL-6 expression ([3]; whole lymphocyte population): significantly increased
BLIMP-1 expression ([3]; whole lymphocyte population): decreased
IRF-4 expression ([3]; whole lymphocyte population): decreased
anti-double stranded DNA autoantibody level, increase (NZBWF1/J mouse): 86%
peripheral blood B cells, decrease (NZBWF1/J mouse): 25%
splenic B cells (NZBWF1/J mouse): no change
reduction of collagen content of the skin (hydroxyproline levels) (Tsk-1 mouse): 38%
reduction of hypodermal thickening (Tsk-1 mouse; p≤0.001): 45%
IC50 (IgG): 3.2 nM
IC50 (IgM): 0.35 nM

Source: US11524950B2, “Treatment of immune-related and inflammatory diseases” (Celgene Corporation, priority 2012, dated 2022)
